Experimental findings from paper PMC11460632, “Chemical modification of hyaluronan oligosaccharides differentially modulates hyaluronan–hyaladherin interactions” (The Journal of Biological Chemistry, 2024) are described below.

Entries after “also recorded” stand apart in the source; their conditions may differ. Read-outs that look alike come from different tables or passages of the source.

Usually Kd stands for the concentration at which binding is half-saturated.

Assay [1] deals with T1, recombinant human TSG-6 (Homo sapiens, UniProt P19827+P98066).
T1 construct: TSG-6–mediated HC-transfer assays (using full-length TSG6); purchased R&D Systems
In words: In vitro HC-transfer assay (IαI + rhTSG-6, Western blot anti-HC1). It counts as biochemical. To be noted: 15 μM HA, 1.8 μM IαI, rhTSG-6, 2 h at 37 °C; for Substrate for HC transfer: Table 6; for Activity as substrate for HC transfer (text): Western blot anti-HC1. The procedure: Covalent transfer of HC from IαI onto unmodified and chemically modified HA oligosaccharides was analyzed using the assay described previously ([26]). All reactions were performed using a buffer of 20 mM Hepes, pH 7.5, 150 mM NaCl, and 5 mM MgCl2. In a “standard” assay, HA oligosaccharides were at 15 μM, human IαI ([97]) 1.8 at μM (based on a molecular weight of 180 kDa), and recombinant human TSG-6 (R&D Systems) at 2.8 μM (based on a molecular weight of 35 kDa). Reaction mixtures were analyzed by SDS-PAGE using 4 to 12% bis-tris polyacrylamide gels (Invitrogen). For Western blot analysis, proteins were transferred onto nitrocellulose membrane (GE Healthcare) and incubated with antisera against HC1 (CP7, 1:10,000; ([98])). Bound primary antibody was detected using goat-anti-rabbit IgG conjugated to IR dye (LI-COR Biosciences) and blots imaged using an Odyssey Clx near-IR fluorescence imaging system (LICOR Biosciences).

Assay [2] deals with T2, Link_TSG6 (Homo sapiens, UniProt P98066).
T2 construct: made in house
The experiment in a line: ITC of HA oligosaccharides binding to Link_TSG6. The conditions noted are these: for N: 0.029 mM Link_TSG6, 0.29 mM oligosaccharide; for % Binding affinity Link_TSG6: Table 6, relative to unmodified oligosaccharide of the same length, by ITC. The procedure: ITC experiments were performed using a MicroCal PEAQ-ITC instrument (Malvern Instruments). Oligosaccharide stock solutions were prepared at 0.29 mM (in 5 mM MES, pH 6.0) and injected (18 × 2 μl with 120 s spacing between injections) into the cell containing ∼200 μl Link_TSG6 (0.029 mM) in matched buffer at 25 °C. Data were fit to a one site binding model, after subtracting the heats from the last three injections to account for heat of dilution of the oligosaccharide into buffer. Each oligosaccharide was analyzed in four independently performed ITC experiments.
For orientation: ITC needs no label: the signal is the heat of the interaction.

For assay [3], the target named is T3, hisCD44_HABD^20–169 (Homo sapiens, UniProt P16070).
T3 construct: A novel construct consisting of residues 20 to 169 of human CD44 and an N-terminal six-histidine tag; made in house
In words: MST of HA oligosaccharides binding to hisCD44_HABD^20–169. The conditions noted are these: for Kd: 10 mM Hepes pH 7.5, 150 mM NaCl, 0.05% Tween-20, 25 °C, three titrations, read-out: KD; for % Binding affinity hisCD44_HABD^20–169: Table 6, relative to unmodified oligosaccharide of the same length, by MST. The method, then:
For hisCD44_HABD^20–169, interactions with HA oligosaccharides were assessed using MST. Protein (200 nM) was labeled with 5 μM red-Tris-NTA-650 dye following the manufacturer’s instructions in 10 mM Hepes, pH 7.4, 150 mM NaCl, 0.05% (v/v) Tween-20 (interaction buffer). Stock solutions of HA oligosaccharides (5 mM in interaction buffer) were serially diluted (1:1 in interaction buffer) 16 times before each concentration was mixed with an equal volume of labeled protein (10 nM final concentration hisCD44_HABD^20–169). Samples were loaded into standard glass capillaries (NanoTemper) and thermophoresis measured at 25 °C (with active temperature control) using a Monolith NT.115pico instrument (NanoTemper) running NT Control software (version 1.0.1). All experiments were performed in triplicate and data analyzed with the “KD fit model” in the NT Analysis software (version 2.0.2).

[4] abbreviates: Table 4, ITC, 25 °C, 5 mM MES pH 6.0, mean ± SEM, four titrations.
Where [5] appears, read: Table 4, ITC, 25 °C, 5 mM MES pH 6.0, mean ± SEM.
Where [6] appears, read: Table 4, ITC, 25 °C, 5 mM MES pH 6.0, mean ± SEM, four titrations, read-out: KD.
Where [7] appears, read: Table 1, ITC, 25 °C, 5 mM MES pH 6.0, mean ± SEM.

T1 sequence (P98066 18-277): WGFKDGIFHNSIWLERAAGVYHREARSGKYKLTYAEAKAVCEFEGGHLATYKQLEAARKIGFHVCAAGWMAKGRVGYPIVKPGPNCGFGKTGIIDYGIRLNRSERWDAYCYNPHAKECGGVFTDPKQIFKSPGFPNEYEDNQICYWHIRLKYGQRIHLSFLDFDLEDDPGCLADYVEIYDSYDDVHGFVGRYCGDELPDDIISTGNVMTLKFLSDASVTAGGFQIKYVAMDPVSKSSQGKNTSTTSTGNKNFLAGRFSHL
T1 sequence (P19827 35-672 limits assumed): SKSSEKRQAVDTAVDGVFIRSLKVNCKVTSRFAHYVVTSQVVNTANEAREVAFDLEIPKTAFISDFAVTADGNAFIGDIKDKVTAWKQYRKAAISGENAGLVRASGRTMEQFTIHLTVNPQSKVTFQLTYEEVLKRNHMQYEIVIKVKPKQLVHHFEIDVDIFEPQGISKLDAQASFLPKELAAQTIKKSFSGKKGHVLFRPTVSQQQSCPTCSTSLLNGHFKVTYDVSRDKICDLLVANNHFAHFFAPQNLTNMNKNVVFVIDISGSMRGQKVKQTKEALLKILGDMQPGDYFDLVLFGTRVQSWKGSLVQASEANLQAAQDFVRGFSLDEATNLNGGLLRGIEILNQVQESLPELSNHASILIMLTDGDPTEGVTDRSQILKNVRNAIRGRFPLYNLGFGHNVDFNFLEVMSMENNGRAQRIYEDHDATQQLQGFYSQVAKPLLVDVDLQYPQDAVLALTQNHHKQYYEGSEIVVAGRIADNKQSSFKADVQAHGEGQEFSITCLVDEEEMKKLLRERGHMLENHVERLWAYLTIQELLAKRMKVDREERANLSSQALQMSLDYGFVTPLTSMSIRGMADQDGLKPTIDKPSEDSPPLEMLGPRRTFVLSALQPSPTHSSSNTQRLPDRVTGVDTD
T3 sequence (P16070 20-169): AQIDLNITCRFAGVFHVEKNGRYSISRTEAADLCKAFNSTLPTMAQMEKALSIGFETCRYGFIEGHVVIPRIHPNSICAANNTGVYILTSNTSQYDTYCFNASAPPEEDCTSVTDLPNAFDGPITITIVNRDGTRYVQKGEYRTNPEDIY
T2 sequence (P98066 36-129 limits assumed): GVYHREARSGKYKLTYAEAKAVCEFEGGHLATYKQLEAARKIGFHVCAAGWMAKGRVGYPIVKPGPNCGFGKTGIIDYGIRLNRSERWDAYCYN

With `CC(=O)N[C@H]1[C@H](O[C@H]2[C@H](O)[C@@H](O)[C@H](O[C@H]3[C@H](O)[C@@H](CO)O[C@@H](O[C@H]4[C@H](O)[C@@H](O)[C@H](O[C@@H]([C@H](O)[C@H](O)CO)[C@H](CNc5cccc6c5CCC6)NC(C)=O)O[C@@H]4C(=O)O)[C@@H]3NC(C)=O)O[C@@H]2C(=O)O)O[C@H](CO)[C@@H](O)[C@@H]1O[C@@H]1O[C@H](C(=O)O)[C@@H](O)[C@H](O)[C@H]1O` [HA6-4AI], in assay [1], the “Substrate for HC transfer” value is listed as “No” and the “Activity as substrate for HC transfer (text)” value (shortened to “Activity as substrate”) was “No HC•HA6 complexes were observed”. The N in assay [2] (setting [4]) worked out at 0.97 ± 0.03. In addition, in assay [2] (setting [5]), the ΔG was -7.98 ± 0.03 kcal/mol, the ΔH was -7.16 ± 0.32 kcal/mol and the “−TΔS” value is given as −0.82 ± 0.30 kcal•mol^a1. In assay [2] (setting [6]), the Kd is 1.42 ± 0.06 µM. The “% Binding affinity Link_TSG6” value in assay [2] came out at 77%. In assay [3] (MST), the “% of binding to hisCD44_HABD^20–169 compared to the unmodified oligosaccharide of the same length” value is recorded as 28%. The “% HAx^AN: percentage of binding affinity (KB) compared to the unmodified oligosaccharide of the same length” value (“% HAx^AN: percentage of binding affinity” for short) in assay [3] (Table 5, MST) was 28%. Moreover, in assay [3] (Table 5, MST, mean ± SD), the Kd was 369 ± 43 µM. The “% Binding affinity hisCD44_HABD^20–169” value in assay [3] is on record as 28%.

As to `CC(=O)N[C@H]1[C@H](O[C@H]2[C@H](O)[C@@H](O)[C@H](O[C@H]3[C@H](O)[C@@H](CO)O[C@@H](O[C@H]4[C@H](O)[C@@H](O)[C@H](O[C@@H]([C@H](O)[C@H](O)CO)[C@H](CNc5ccc6c(c5)CCC6)NC(C)=O)O[C@@H]4C(=O)O)[C@@H]3NC(C)=O)O[C@@H]2C(=O)O)O[C@H](CO)[C@@H](O)[C@@H]1O[C@@H]1O[C@H](C(=O)O)[C@@H](O)[C@H](O)[C@H]1O` [HA6-5AI], in assay [1], the “Substrate for HC transfer” value is reported as “No” and the “Activity as substrate” value is recorded as “No HC•HA6 complexes were observed”. Besides, the “% of binding to Link_TSG6 compared to the unmodified oligosaccharide of the same length” value in assay [2] (ITC) is given as around 162%. In addition, in assay [2] (setting [4]), the N came out at 1.03 ± 0.02. For the same compound, in assay [2] (setting [5]), the ΔG was -8.43 ± 0.08 kcal/mol, the ΔH is -7.46 ± 0.37 kcal/mol and the “−TΔS” value is given as −0.96 ± 0.42 kcal•mol^a1. Besides, the equilibrium dissociation constant (Kd) in assay [2] (setting [6]) turned out to be 0.68 ± 0.08 µM. The “% Binding affinity Link_TSG6” value in assay [2] is 162%. Moreover, in assay [3] (MST), the “% of binding to hisCD44_HABD^20–169 compared to the unmodified oligosaccharide of the same length” value was 133% and the “Fold increase in affinity for CD44_HABD compared to the unmodified oligosaccharide” value came out at 1.3 fold. Further, the “% HAx^AN: percentage of binding affinity” value in assay [3] (Table 5, MST) came to 133%. In addition, the dissociation constant (Kd) in assay [3] (Table 5, MST, mean ± SD) was found to be 77 ± 12 µM. In assay [3], the “% Binding affinity hisCD44_HABD^20–169” value is 133%.

Turning to `CC(=O)N[C@H]1[C@H](O[C@H]2[C@H](O)[C@@H](O)[C@H](O[C@H]3[C@H](O)[C@@H](CO)O[C@@H](O[C@H]4[C@H](O)[C@@H](O)[C@H](O[C@@H]([C@H](O)[C@H](O)CO)[C@H](CNc5cc[nH]n5)NC(C)=O)O[C@@H]4C(=O)O)[C@@H]3NC(C)=O)O[C@@H]2C(=O)O)O[C@H](CO)[C@@H](O)[C@@H]1O[C@@H]1O[C@H](C(=O)O)[C@@H](O)[C@H](O)[C@H]1O` [HA6-3APY], in assay [1], the “Substrate for HC transfer” value was “Yes” and the “Activity as substrate” value is “good substrates; also recorded: could become covalently coupled to an HC”. In assay [2] (setting [4]), the N was 0.93 ± 0.02. In assay [2] (setting [5]), the ΔG is -7.77 ± 0.15 kcal/mol, the ΔH was -7.82 ± 0.73 kcal/mol and the “−TΔS” value is on record as 0.04 ± 0.87 kcal•mol^a1. Moreover, the Kd in assay [2] (setting [6]) turned out to be 2.24 ± 0.68 µM. In addition, the “% Binding affinity Link_TSG6” value in assay [2] was found to be 49%. Also, the “% of binding to hisCD44_HABD^20–169 compared to the unmodified oligosaccharide of the same length” value in assay [3] (MST) stood at 91%. Also, in assay [3] (Table 5, MST), the “% HAx^AN: percentage of binding affinity” value is listed as 91%. Besides, in assay [3] (Table 5, MST, mean ± SD), the Kd was 113 ± 6 µM. In addition, the “% Binding affinity hisCD44_HABD^20–169” value in assay [3] stood at 91%.

For `COc1ccc(C(=O)O)c(NC[C@H](NC(C)=O)[C@@H](O[C@@H]2O[C@H](C(=O)O)[C@@H](O[C@@H]3O[C@H](CO)[C@@H](O)[C@H](O[C@@H]4O[C@H](C(=O)O)[C@@H](O[C@@H]5O[C@H](CO)[C@@H](O)[C@H](O[C@@H]6O[C@H](C(=O)O)[C@@H](O)[C@H](O)[C@H]6O)[C@H]5NC(C)=O)[C@H](O)[C@H]4O)[C@H]3NC(C)=O)[C@H](O)[C@H]2O)[C@H](O)[C@H](O)CO)c1` [HA6-2A4MBA], in assay [1], the “Substrate for HC transfer” value is reported as “Yes” and the “Activity as substrate” value was “weak substrates; also recorded: could become covalently coupled to an HC”. In addition, in assay [2] (ITC), the “% of binding to Link_TSG6 compared to the unmodified oligosaccharide of the same length” value is on record as 238% and the “Fold increase in affinity for Link_TSG6 compared to the unmodified oligosaccharide” value stood at 2.4 fold. Further, the Kd in assay [2] (ITC, read-out: KD for Link_TSG6) amounted to 0.46 µM. Besides, the N in assay [2] (setting [4]) is 1.00 ± 0.02. In assay [2] (setting [5]), the ΔG is -8.64 ± 0.04 kcal/mol, the ΔH is -10.07 ± 0.28 kcal/mol and the “−TΔS” value is listed as 1.44 ± 0.25 kcal•mol^a1. Further, the “% Binding affinity Link_TSG6” value in assay [2] worked out at 238%. For the same compound, the “% of binding to hisCD44_HABD^20–169 compared to the unmodified oligosaccharide of the same length” value in assay [3] (MST) came out at 52%. Moreover, in assay [3] (Table 5, MST), the “% HAx^AN: percentage of binding affinity” value came out at 52%. For the same compound, the Kd in assay [3] (Table 5, MST, mean ± SD) was 198 ± 29 µM. For the same compound, the “% Binding affinity hisCD44_HABD^20–169” value in assay [3] was found to be 52%.

For the compound `CC(=O)N[C@H]1[C@H](O[C@H]2[C@H](O)[C@@H](O)[C@H](O[C@H]3[C@H](O)[C@@H](CO)O[C@@H](O[C@H]4[C@H](O)[C@@H](O)[C@H](O[C@H]5[C@H](O)[C@@H](CO)OC(O)[C@@H]5NC(C)=O)O[C@@H]4C(=O)O)[C@@H]3NC(C)=O)O[C@@H]2C(=O)O)O[C@H](CO)[C@@H](O)[C@@H]1O[C@@H]1O[C@H](C(=O)O)[C@@H](O)[C@H](O)[C@H]1O` (some centres unmarked) [HA6^AN, reference compound], in assay [1], the “Substrate for HC transfer” value is “No” and the “Activity as substrate” value was “did not”. This compound also displayed a N in assay [2] (Table 1, ITC, 25 °C, 5 mM MES pH 6.0, mean ± SEM, four titrations) of 1.04 ± 0.04. Further, in assay [2] (setting [7]), the ΔG was -8.13 ± 0.02 kcal/mol, the ΔH is -8.29 ± 0.19 kcal/mol and the “−TΔS” value stood at 0.162 ± 0.21 kcal/mol. In addition, in assay [2] (Table 1, ITC, 25 °C, 5 mM MES pH 6.0, mean ± SEM, four titrations, read-out: KD), the Kd came to 1.09 ± 0.04 µM. The “−TΔS” value in assay [2] (setting [5]) amounted to 0.162 ± 0.21 kcal•mol^a1. In addition, the “% Binding affinity Link_TSG6” value in assay [2] stood at 100%. Moreover, the “% HAn^AN: percentage of binding affinity (KB) compared to the unmodified oligosaccharide of the same length” value in assay [3] (Table 2, MST) is given as 100%. For the same compound, in assay [3] (Table 2, MST, mean (±SD)), the Kd was 103 µM. Also, the “% HAx^AN: percentage of binding affinity” value in assay [3] (Table 5, MST) was found to be 100%. The “% Binding affinity hisCD44_HABD^20–169” value in assay [3] was determined as 100%.
